In patent publication US12678451B2, “Cannabinoid and omega fatty acid compositions and methods of using” (GreenWay Herbal Products, LLC, priority 2019, dated 2026):
Like-named read-outs stand apart in the source and are kept apart here.

Columns and labels:
[1] = system: cytokines induced in mice by LPS; assay: Mouse LPS cytokine animal model (Example 3), cannabinoids in PB with 5% DMSO; assay type: in vivo; conditions: 5 mg/kg
Experimental: This experiment was conducted to compare the ability of CBD, CBDA or the 1:1 equimolar mixture of CBD:CBDA to suppress the induction of cytokines whose expression levels were induced in mice by LPS.
The ability of agents to suppress the immune system can be tested in vivo using an LPS mouse model, in which mice are injected with LPS to cause an immune response (Field et al., 1970; Ghezzi P and Sipe J D, 1988).
Four 20 g female C57BL/6 mice were used per group. The experimental mice were first injected with 0.1 mL of the cannabinoids prepared at 1 mg/mL in phosphate buffer (PB) with 5% DMSO to yield a final dose of 5 mg/kg, followed one hour later by the injection of 0.1 mL of 0.02 mg/mL LPS in PB to yield a final dose of 0.1 mg/kg. Mice injected with 0.1 mL of PB with 5% DMSO and 0.1 mL of PBS served as a non-induced control and mice injected with 0.1 mL of PB with 5% DMSO and 0.1 mL of 0.02 mg/mL LPS in PB served as a LPS untreated control. After allowing two hours for the immune system to be induced by LPS, the mice were then euthanized, heart punctures performed to extract the blood, which was allowed to coagulate on ice for 1 hour before centrifuging to isolate the serum. The levels of 32 of the most common mouse cytokines (Eve Technologies, Calgary, Canada, Table 9) were determined by multi-plex analysis.

[2] = DPPH antioxidant assay; assay type: biochemical; conditions: 100 μM
Experimental: The ability of the cannabinoids to act as potential antioxidants was assessed using the 2,2-diphenyl-1-picrylhydrazyl (DPPH) antioxidant assay. The cannabinoids CBDA, CBD, CBDVA, CBDV, CBG, THCV, and the 1:1 CBD:CBDA mixture had the highest antioxidant activities with radical scavenging activities of 38.19%, 48.00%, 43.81%, 44.21%, 44.28%, 45.71%, and 43.74%, respectively.
The 2,2-diphenyl-1-picrylhydrazyl (DPPH) free radical (Alfa Aesar) was prepared at 0.1 mM in ethanol. The cannabinoids were tested at a final concentration of 100 uM. 2 uL of 7.5 mM stock solutions of the cannabinoids to be tested in DMSO were added to 148 uL of 0.1 mM DPPH to achieve a final concentration of 100 μM in the assay. Ascorbic acid (Thermo Scientific) at a final concentration of 10 mg/ml was used as a positive control. The reaction mixture was incubated in the dark at room temperature for 1 hour, the absorbance of the mixture was read at 517 nm using a Spectra Max 5M microplate reader (Molecular Devices, LLC, Sunnyvale, Calif., USA) and the absorbance was converted to percent radical scavenging activity (% RSA) using the following formula: % RSA=[(Absorbance of the control−Absorbance of the sample)/(Absorbance of the control)]×100.
Free radical production occurs when the immune system is activated and antioxidants represent potential effective treatments for inflammatory conditions and autoimmune diseases. […] The DPPH antioxidant assay can be used to measure the ability of a compound to scavenge free radicals by measuring the ability of compounds to hydrogenate and reduce DPPH. The DPPH assay was conducted on CBCA, CBDA, CBDVA, CBGA, CBLA, CBNA, THCVA, and their decarboxylated derivatives as well as the 1:1 CBD:CBDA mixture.

[3] = doses up to 100 mg in mice; cited from earlier work
[4] = system: cytokine levels in differentiated THP-1 cells treated with LPS; assay: THP-1 human cellular LPS cytokine assay, four independent experiments, per cytokine; assay type: cell-based; conditions: 2 µM; LPS 20 ng/mL
[5] = system: animal or human cells grown via tissue culture; conditions: cited from earlier work
[6] = system: differentiated U-937 cells; assay: Human cellular U-937 autophagy induction assay (anti-LC3); assay type: cell-based; conditions: 1.0 μM, 12 hours
Experimental: The induction of autophagy was monitored using anti-LC3 antibodies to detect LC3 on the autophagosome in human U-937 pro-monocytic histiocytic lymphoma cells (ATCC, Manassas, Va., USA), which generate morphologies characteristic of macrophages upon induction by various stimuli. U-937 cells were cultured in RPMI-1640 medium with L-glutamine and sodium bicarbonate (Sigma-Aldrich, St Louis, Mo.) supplemented with 10% fetal bovine serum (FBS) and 1% penicillin in 25 cm2 tissue flasks at 37° C. in a 5% CO2 humidified atmosphere and passaged every 2-3 days. U-937 cells were seeded in 96 well plates at 5×10^5 cells/mL and stimulated with 100 ng/mL PMA to induce differentiation for 24 hours. The cells were then treated with the various cannabinoids at 1.0 μM concentrations for 12 hours. 30 μM chloroquine was used as a positive control. After treatment, the cells were fixed using 3.7% formaldehyde in PBS for 15 minutes at room temperature and washed with PBS to remove the fixative. Permeabilization reagent (0.2% Triton X-100 in PBS) (Sigma-Aldrich) was added, the cells were incubated for 15 minutes at room temperature and then the cells were washed with PBS to remove the permeabilization reagent. LC3B rabbit polyclonal antibody (Invitrogen) was added at a final concentration of 0.5 μg/ml for 1 hour at room temperature and the cells were washed with PBS remove the primary antibody. Secondary conjugated goat anti-rabbit polyclonal antibody (Thermo Scientific) was then added at a final concentration of 2.0 μg/ml for 1 hour at room temperature. The cells were washed, Hoechst dye was added to stain the nucleus and the cells were imaged using an Arrayscan VTI high-content screening (HCS) reader (Thermo Scientific) with the appropriate filters and the data was analyzed using the vHCS Scan software.
Chloroquine at a concentration of 30 μM was included as a positive control. The ability to induce autophagy was determined as a percentage with respect to the untreated control.

[7] = doses up to 600 mg in humans; cited from earlier work
[8] = system: cytokine levels in differentiated THP-1 cells treated with LPS; assay: THP-1 human cellular LPS cytokine assay, three independent experiments, total averaged suppression
Experimental: Cells were seeded onto 24-, or 12-well plates and incubated for 48 hours to 72 hours to allow for differentiation. […] Supernatants were collected for quantification of human cytokine levels to assess the cytokine response. Cells remaining after the supernatant collection were tested to ensure they had at least 90% viability as determined by Alamar Blue assays. To conduct the Alamar Blue assays, supernatants were replaced with culture medium containing 1× Alamar Blue reagent and incubated overnight. Cell viability was assessed by measuring relative fluorescent units (RFU) on the SpectraMax M2e microplate reader (Molecular Devices Inc., Sunnyvale, Calif., USA) at Excitation 560 nm and Emission 590 nm. Controls included untreated cells with DMSO at the same concentration as the treated cells, LPS stimulated cells with DMSO at the same concentration as the treated cells and LPS stimulated cell with the various treatments. The levels of 42 of the most common human cytokines (Eve Technologies, Calgary, Canada Table 6) were determined by multi-plex analysis.
For this reason, the level of cytokine suppression was determined for each cytokine by each cannabinoid that was tested and the total averaged suppression for each cannabinoid was determined by dividing the total suppression by the number of the cytokines that were analyzed.

C=C(C)[C@@H]1CCC(C)=C[C@H]1c1c(O)cc(CCCCC)cc1O [CBD, 2-[(1R,6R)-6-Isopropenyl-3-methyl-2-cyclohexen-1-yl]-5-pentyl-1,3-benzenediol]
Average cytokine suppression [1]: 12.86% | GM-CSF suppression [1]: 34.53% | IFNγ suppression [1]: −0.19% | IL-1β suppression [1]: 10.58% | IL-2 suppression [1]: −0.09% | IL-6 suppression [1]: 4.49% | IL-12β p40 suppression [1]: 34.89% | IL-13 suppression [1]: 6.38% | IL-17 suppression [1]: 7.51% | IP-10 suppression [1]: 1.72% | KC suppression [1]: 7.85% | LIF suppression [1]: 25.24% | M-CSF suppression [1]: 7.70% | MIP-1α suppression [1]: 6.69% | MIP-1β suppression [1]: −0.77% | MIP-2 suppression [1]: 34.56% | TNF-α suppression [1]: 24.74% | radical scavenging activity compared to the untreated control [2]: at least two-fold | % RSA (radical scavenging activity) ([2]; 1 hour): 48.00% | adverse side effects [3]: no adverse side effects | Average cytokine suppression [4]: 39.62% | EGF suppression [4]: −5.61% | FGF-β suppression [4]: 41.85% | Flt-3L suppression [4]: 60.02% | G-CSF suppression [4]: 51.32% | GM-CSF suppression [4]: 45.16% | IFNγ suppression [4]: 13.71% | IL-1α suppression [4]: 55.14% | IL-1β suppression [4]: 71.06% | IL-4 suppression [4]: 14.63% | IL-6 suppression [4]: 66.26% | IL-7 suppression [4]: 18.2% | IL-10 suppression [4]: 32.42% | IL-12 p70 suppression [4]: −31.17% | IL-15 suppression [4]: 62.30% | IL-18 suppression [4]: 56.90% | IP-10 suppression [4]: 67.08% | MCP-1 suppression [4]: 43.90% | MIP-1β suppression [4]: 31.85% | TNFα suppression [4]: 29.05% | TNFβ suppression [4]: 68.24% | dose that can cause significant cytotoxicity [5]: less than 5 μM | Fluorescence (LC3) [6]: 45.43 | activation at 1 µM ([6]; Homo sapiens, U-937, read-out: Induction of autophagy with respect to the untreated control): -5.84% | adverse side effects [7]: no adverse side effects | effectiveness at reducing elevated cytokine levels relative to dexamethasone [8]: at least half as effective as dexamethasone | inhibition at 2 µM ([8]; Homo sapiens, THP-1, 4 h, read-out: % Cytokine Suppression (total averaged)): 33.1%
